Measured values reported in patent US20240116990A1, “Compositions and Methods of Treatment Using CRRL 191” (Mayo Foundation for Medical Education and Research, priority 2022, published 2024).
Bridge positions count the residues as written; N and C are the ends.

Key:
[1] = tested on: Human cardiomyocytes (HCM); test: Human cardiomyocyte (HCM) cGMP analysis; assay type: cell-based
Description: Human cardiomyocytes (HCM) are purchased from ScienCell (Catalog #6200) and maintained in Cardiac Myocyte Medium (Cat #6101, ScienCell) containing 10% FBS. An in vitro cGMP assay is performed. Briefly, HCM cells are seeded in 6-well plates and cultured overnight to 80-90% confluency. The treatment buffer used in all experiments comprises Hank's Balanced Salt Solution (HBSS), 0.1% BSA, 2 mM HEPES, and 0.5 mM 3-isobutyl-1-methylxanthine (IBMX, a non-specific phosphodiesterase inhibitor) (Sigma, St. Louis, MO). […] For the negative control, HCM are incubated in treatment buffer (vehicle) only. After treatment for 10 minutes, all cells are washed with phosphate buffered solution (PBS) once, lysed with 0.1 M HCl, and sonicated for 10 min.

[2] = target: T1, extracellular domain of GC-A recombinant protein (Homo sapiens, UniProt P16066); test: GC-A binding by surface plasmon resonance (SPR); conditions: SPR binding curves, FIG. 7
T1 construct: The extracellular domain of GC-A recombinant protein with a C-terminal His-tag (MyBioSource, Inc., San Diego, CA); purchased MyBioSource, Inc., San Diego, CA
T1 sequence (P16066 33-473 limits assumed): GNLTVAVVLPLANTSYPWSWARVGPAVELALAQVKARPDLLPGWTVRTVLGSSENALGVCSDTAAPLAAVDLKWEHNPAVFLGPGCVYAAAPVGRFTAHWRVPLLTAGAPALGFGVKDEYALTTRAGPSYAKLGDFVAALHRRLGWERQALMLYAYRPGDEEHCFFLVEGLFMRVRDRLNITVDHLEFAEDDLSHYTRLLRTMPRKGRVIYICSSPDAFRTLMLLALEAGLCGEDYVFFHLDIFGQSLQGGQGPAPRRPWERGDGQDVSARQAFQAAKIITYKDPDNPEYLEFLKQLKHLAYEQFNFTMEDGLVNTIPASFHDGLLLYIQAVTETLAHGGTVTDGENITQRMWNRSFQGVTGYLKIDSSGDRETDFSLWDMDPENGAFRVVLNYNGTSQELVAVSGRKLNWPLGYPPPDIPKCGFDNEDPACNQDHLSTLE
Description: Surface plasmon resonance (SPR) measurements are performed at 25° C. on a BI-4500 SPR instrument (Biosensing Instrument Inc., Tempe, AZ). The extracellular domain of GC-A recombinant protein with a C-terminal His-tag (MyBioSource, Inc., San Diego, CA) is immobilized onto a Ni-NTA sensor chip (Biosensing Instrument Inc., Tempe, AZ) using 400 μM nickel sulfate in de-iron water as linker, as instructed by the instrument manual. Then, 40 μg/ml of recombinant GC-A is immobilized on the Ni-NTA sensor chip. […] Data are collected as sensorgrams. Binding kinetics are calculated from sensorgrams using the BI-Data Analysis Program (Biosensing Instrument, Tempe, AZ).

[3] = tested on: Spontaneously Hypertensive Rats (SHR); test: Plasma cGMP in spontaneously hypertensive rats; assay type: in vivo, rat
Description: All rat experiments are conducted following the Animal Welfare Act and the protocol is approved by the Mayo Clinic Institutional Animal Care and Use Committee (IACUC). […] Rats are included only if they are deemed healthy by the Institutional Veterinarian Department. Investigators who conduct the in vivo study are not blinded to treatments, but biochemical analysis is performed by a different investigator who is blinded to treatment.
On the day of the experiment, SHR rats are anesthetized with inactin (120 mg/kg, intraperitoneal injection, Sigma, St. Louis, MO). Rats are then kept on a heating pad at 38° C. to maintain a normal body temperature for the entire study. Vascular and bladder cannulation procedures are conducted. Briefly, a polyethylene-50 (PE-50) tube catheter is placed into one jugular vein for peptide infusion and another PE-50 tube is placed into the carotid artery for blood pressure (BP) monitoring (Sonometrics, London, Ontario, Canada) and blood sampling. After instrumentation, a 15-minute equilibrium period follows, and a 30-minute pre-infusion period is performed to collect baseline urine samples.
Four blood samples are collected to determine circulating cGMP levels: at baseline, before the end of drug infusion, at the middle of the washout clearance period, and before the end of the washout clearance period. Any blood loss in the rats is replaced with an equal volume of saline. BP is monitored and recorded every 15 minutes beginning after the initiation of peptide infusion. All collected blood are stored at −80° C. until assayed.
For the biochemical analysis, plasma cGMP levels are measured with a cGMP ELISA kit (Enzo Life Sciences, Farmingdale, NY).

[4] = 100 pmol/kg and 300 pmol/kg doses, FIG. 9B

## H-RALLTAPRSLRRSSCFGHKIDRINHVSNLGCNSFRYRITAREDKQGWA-OH (disulfide 15-31) [CRRL 191]
[1]; 10^−9 M to 10^−6 M, FIG. 5
  cGMP production compared to MANP or CRRL 101: great levels of cGMP production than MANP or CRRL 101
[1]; 10^−10 M to 10^−6 M, 10 min, FIG. 4
  cGMP production compared to ANP: greater cGMP production than ANP
[2]
  binding for the GC-A receptor compared to ANP and MANP: greater binding
[3]; [4]
  activating cGMP in plasma compared to ANP: more potent
  duration of plasma cGMP activation after peptide administration compared to ANP: more sustained activation
[3]; iv infusion, FIG. 9A
  plasma cGMP levels: increase
